Assay results taken from US20210347662A1, “METHODS AND APPARATUS FOR CONTROLLING OR […] TIDE” (priority 2020, published 2021).

Key:
K. brevis [1] = test: K. brevis cell count in test tubes of sea water after adding red tide inhibitors; type: cell-based, Karenia brevis; conditions: 10 ml Gulf of Mexico sea water, initial count at least 1 million K. brevis cells per liter; one drop of concentrated solution or 5 mg solid; counted after two minutes
Procedure: Experiments were performed to determine the K. brevis count with various red tide inhibitors.
A microscope with magnification up to 2500 times, was used along with a gridded Sedgewick-Rafter counting slide to record K. brevis cell counts. Testing was performed on Gulf of Mexico sea water containing K. brevis with an initial K. brevis cell count of at least 1 million K. brevis cells per liter. Test tubes contained 10 ml. each of this sea water, to which the following salts and other chemicals were added. For a concentrated solution of the additive, one drop is added and for solid additives, 5 mg is added. The test tubes contents containing the additives were gently mixed and then counts tabulated after two minutes.
Table 1 identifies the additives tested and the resultant cell count.

K. brevis [2] = test: Microscope slide droplet test of additives on living K. brevis; type: cell-based, Karenia brevis; conditions: microscopy; drop of Gulf of Mexico marine water with at least hundreds of living K. brevis organisms to start; a droplet of additive solution or about 1 to 0 mg solid added

Compound | Cell Count (K. brevis [1]) | Experimental Results (K. brevis [2])
O=S(=O)([O-])[O-].[Cu+2] [Concentrated copper sulfate solution, copper sulfate] | None | No living K. brevis
O=S(=O)([O-])[O-].[Mg+2] [Concentrated magnesium sulfate solution, magnesium sulfate] | None | No living K. brevis
[Cl-].[Na+] [Concentrated salt solution, sodium chloride] | None | No living K. brevis
CN(C)c1ccc2nc3ccc(=[N+](C)C)cc-3sc2c1 [Dilute methylene blue solution, methylene blue] | Very few | No living K. brevis
[O]=[Ca] [Solid calcium oxide, calcium oxide] | None | 
[Ca+2].[OH-].[OH-] [calcium hydroxide] |  | No living K. brevis
CN.Cl [methylammonium chloride] |  | No living K. brevis
C[N+](C)(C)C.[Cl-] [tetamethylammonium chloride] |  | No living K. brevis
calcium sulfate [Concentrated calcium sulfate solution] | None | No living K. brevis
